Source: a melting point compilation (Tetko et al.; mined from patent text by program, amines drawn as free bases though some values may be those of a salt)

melting point | SMILES
198 to 202 °C | COc1ccccc1CNc1cc(C(N)=O)c([N+](=O)[O-])cc1[N+](=O)[O-]
149 to 150 °C | N#Cc1ccc(OCc2ccc(C=Cc3ccncc3)cc2)cc1
224 to 225 °C | CCCn1c(=O)c2c(nc(/C=C/c3cc(OC(C)=O)cc(OC(C)=O)c3)n2C)n(CCC)c1=O
221 to 222 °C | CS(=O)(=O)Nc1ccc(C(=O)NC(=O)N2CCC(Cc3ccc(F)cc3)CC2)cc1
109 to 112 °C | CCNC(=O)Nc1scc(-c2ccccc2)c1C(=O)OCC
150 °C | N#Cc1ccc(CN(c2ccc(O)cc2)n2ccnc2)cc1
220 to 222 °C | Cc1ccc(C(=O)NC(NC(=NC#N)Nc2ccccc2F)C(Cl)(Cl)Cl)cc1 (stereo unspecified)
114 °C | Clc1cccc(C2(Cn3cncn3)OCCO2)c1
225 to 226 °C | CC(=C1SC(=O)NC1=O)c1cccc(OCCOc2c(-c3ccc(F)cc3C)n(C)c3ccccc3c2=O)c1
232 to 234 °C | Cc1oc2ccc(O)cc2c(=O)c1Cc1cccc(NS(=O)(=O)C(F)(F)F)c1
92 to 93 °C | CCCCCCC(=NO)C(=O)c1ccc(OC)c2ccccc12
149 °C | COc1cncc(-c2cc(=S)ss2)n1
35 to 36 °C | c1ccc(Oc2nnns2)cc1
215 to 216 °C | CC(Cl)(Cl)C(NC(=O)c1ccc(Br)cc1)NC(=NC#N)Nc1ccc(Cl)nc1 (stereo unspecified)
130 to 132 °C | O=C1c2ccccc2C(=O)N1n1cccc1Cl
104 to 105 °C | Cn1nnnc1Cc1ccc(N)cc1
217 to 218 °C | O=c1[nH]c(=O)n(Cc2ccc(Cl)cc2)c2ccccc12
64 to 65 °C | COC(=O)C(Oc1ccc(Cl)cc1)c1ccc(OCOc2ccc(Cl)cc2)cc1 (stereo unspecified)
171 to 173 °C | COc1ccc(O[C@@H]2CCNC[C@H]2O)cc1 (relative stereo)
72 to 76.5 °C | COc1ccc(CC(Cc2ccccc2)C(=O)O)cc1 (stereo unspecified)
134 to 136 °C | Cc1cc(NCC(=O)N(C)c2ccccc2)nc(-c2ccccc2)n1
135 to 138 °C | COc1ccc2c(c1)CCC1CCNC(=O)C(CCl)=C21 (stereo unspecified)
214 to 218 °C | NS(=O)(=O)c1ccc(-n2ccc(C(F)F)n2)c(-c2ccc3c(c2)OCO3)c1
85 to 86 °C | C=Cc1ccccc1OC(C)C(=O)N1CCCC1 (stereo unspecified)
177 to 179 °C | CC(=O)c1ccc(NCc2cc3c(cc2O)CCCO3)cc1

melting point | SMILES
69 to 70 °C | Nc1sc2c(c1C(=O)c1ccc3ccccc3c1)CCC(Cc1ccccc1)C2 (stereo unspecified)
60 to 62 °C | COc1c(O)c(C=O)cc2ccoc12
214 to 216 °C | C=CCN(c1nc(-c2cc3ccccc3[nH]c2=O)cs1)S(=O)(=O)c1ccccc1
164 °C | Cc1noc(NS(=O)(=O)c2ccc(-c3cc4ccccc4s3)s2)c1Br
160 to 162 °C | CN(C)CCNC(=O)Cc1ccc(NC(=O)Cc2ccc([N+](=O)[O-])cc2)cc1
260 °C | O=C(Nc1cccc(Br)c1)Oc1ccc2ncccc2c1
178 to 180 °C | NNc1cc2c(nn1)CCN(C(=O)c1cccc(Cl)c1)C2
165 to 167 °C | CCOC(=O)c1cn(Cc2ccccc2OC)c2sc(-c3ccc(OC)cc3)c(C)c2c1=O
118 to 120 °C | CCn1c2ccccc2c2cc([N+](=O)[O-])ccc21
123 °C | Cc1cccc(NC(=O)NCC(=O)N2C(C(=O)OC(C)(C)C)CCCC2c2ccccc2)c1 (stereo unspecified)
191 to 193 °C | COc1cc2c(c3c1OC(C)(C)C3)C(c1cccc(C(N)=O)c1)=NCC2(C)C
129 to 131 °C | CCOC(=O)COc1ccc(Cn2c(-c3ccc(OCc4ccccc4)cc3)c(C)c3cc(OCc4ccccc4)ccc32)cc1
162 to 163 °C | OC[C@@H]1Cc2cc3ccccc3n2C[C@H]1CO (relative stereo)
185 to 186 °C | Nc1nc2ccccc2c2c1nc1n2C(COCc2ccccc2)COC1 (stereo unspecified)
80 to 82 °C | CN1CCC[C@H]1c1cnc(Cl)cc1C(O)c1cc(Cl)ncc1[C@@H]1CCCN1C
> 300 °C | O=C1CC[C@@H](C(=O)Nc2ccc(-c3ncc(C(=O)O)c(O)n3)cc2)N1
114 to 115 °C | Clc1nc(-c2cccnc2)sc1Br
104 to 106 °C | NC1=CC([N+](=O)[O-])C(N)(CC(F)(F)F)C=C1 (stereo unspecified)
224 °C | COC(=O)c1cc(C(=O)O)ccc1N
150 to 153 °C | NC(=O)c1n[nH]c(S(=O)(=O)c2ccccc2)n1
138 °C | COc1ccc2c(c1)C(CCNC(C)=O)CCO2 (stereo unspecified)
117 °C | Cc1cc(C)c(O)c(CC(C)(C)CO)c1
96 to 97 °C | Cn1cc(Br)cc(Nc2ccn(CCO[Si](C)(C)C(C)(C)C)n2)c1=O
65 °C | O=C(NCc1ccccc1)C1Cc2ccccc2N1S(=O)(=O)c1ccc(-c2ccc(F)cc2)cc1 (stereo unspecified)
254 °C | O=C(Nc1ccc2ccc(Cl)nc2n1)c1ccsc1

melting point | SMILES
247 °C | CC(C)c1ccc(N(Cc2cn[nH]c2)C(=O)C2CCCc3c(O)cccc32)cc1 (stereo unspecified)
> 275 °C | N=C(N)c1ccc(N2CCN(c3ccc(SCC(=O)O)cc3)C2=O)cc1
45 °C | Clc1ccc(-n2ccc(OCc3ccccc3Br)n2)cc1
231 to 233 °C | COc1ccc(-c2c(NC(=O)Nc3ccc(F)cc3F)c(=O)n(C)c3ccc(C)cc23)cc1OC
85 °C | CCOC(=O)C(=Cc1c(C)cc(C)cc1C)C(=O)CCl
152 to 153 °C | Oc1c(C(=Nc2ccccc2)Nc2ccccc2)sc2ccccc12
178 °C | Nc1nc2ccc(OCc3c(F)cccc3F)cc2s1
90 °C | CCOC(=O)c1nccn1C1Cc2ccc(Cl)c(Cl)c2C1=O (stereo unspecified)
147 to 149 °C | CCN(CC)Cc1ccnc(F)c1CNC(=O)c1cnc2cc(I)ccc2n1
165 to 168 °C | COc1cc(OC)nc(Sc2ncccc2C(=O)O)n1
155 to 156 °C | Fc1cccc(F)c1C1=NC(c2ccc(C#Cc3ccc(Cl)cc3)cc2)CO1 (stereo unspecified)
222 to 224 °C | CC(=O)Oc1ccc(C(=O)N2CCN(C(N)=O)C2=O)cc1OC(C)=O
209 to 211 °C | CCOCc1nc2c(N)nc3cc(OCC(=O)N4CCOCC4)ccc3c2n1CC(C)(C)O
> 240 °C | COc1ccccc1CN[C@H]1CCCN[C@H]1c1cc(Br)cc(Br)c1 (relative stereo)
151 to 152 °C | CCOC(=O)Cc1ccc(-c2nc(COc3ccc(C=O)cc3OC)c(C)o2)cc1
91 to 92 °C | Cc1nn(C)cc1C(=O)Nc1ccccc1
89 to 91 °C | Cc1ccc(C(=O)c2c(C)cc(C)cc2OCC(O)CNC(C)C)cc1 (stereo unspecified)
80.5 to 82.5 °C | CCCCCS(=O)(=O)NC(=O)/C=C/c1ccc(Oc2ncccn2)cc1Oc1ncc(C(F)(F)F)cc1Cl
150 to 151 °C | CCSc1ccc2c(c1)CCN2C(=O)Nc1cccnc1
193 °C | CN(C)C(=O)c1ccc(Cl)c(C#N)c1
103 to 105 °C | Cc1oc(-c2ccccc2)nc1COc1ccc(C=O)cc1
73 to 76 °C | CC(=O)CCCCCNC(=O)Nc1ccccc1CCc1cc(C(C)(C)C)c(O)c(C(C)(C)C)c1
214 to 220 °C | COc1cc2cc(CO)c(CO)c(-c3ccnc(NN)c3)c2cc1OC
187 to 188 °C | COc1ccc(-c2cc(-c3ccc(OC)c(OC)c3)c(C#N)c(C)n2)cc1
177 to 179 °C | O=[N+]([O-])c1cccc(C=[N+]([O-])c2cccc(CO)c2)c1

melting point | SMILES
168 to 170 °C | Cc1ccc(S(=O)(=O)OC2COc3ccc4ncccc4c3C2)cc1 (stereo unspecified)
164 to 166 °C | Cc1ccc(CC2CCN(CCOc3ccc4cc(O)ccc4c3)CC2)cc1
180 to 181 °C | O=C(O)COc1ccc2c(c1)Nc1ccccc1S2
154 to 157 °C | Nc1nc2ccc(Oc3ccc4c(c3)OCO4)cc2s1
176 °C | Brc1ccc2nc(-c3cccnc3)nn2c1
226 to 229 °C | Cc1nc2c(N)nc3c(c2n1CC(C)(C)OCCS(C)(=O)=O)CCCC3
119 to 120 °C | CCOC(=O)Cc1nsc(NC(=O)c2ccccc2)n1
62 to 67 °C | CN(C(=O)OC(C)(C)C)c1cc(Sc2ccc(O)cc2)ccc1N
180 to 190 °C | COc1cc2c(c(N3CCN(C)CC3)c1)OC(C(=O)Nc1ccc(N3CCN(C)CC3)cc1)CC2 (stereo unspecified)
226 °C | COc1ccc2ccc3c(c2c1)C=C(C(=O)O)CO3
184 °C | COc1cc(-c2ccc(N)nn2)ccc1OC(F)F
179 to 181 °C | Cc1cnn(-c2ccc(C(=O)N3C=C4CC=CN4Cc4ccccc43)cc2)c1
88 to 89 °C | CNC(=NS(=O)(=O)C(F)(F)F)SC
123 to 125 °C | COC(=O)C(=O)c1ccc(OCCOc2ccc3ccccc3c2)cc1Cl
104 to 107 °C | N#Cc1cc(/C=C/C(c2cc(Cl)c(Cl)c(Cl)c2)C(F)(F)F)ccc1-n1cnc(N(C(=O)C2CC2)C(=O)C2CC2)n1 (stereo unspecified)
182 to 185 °C | N#Cc1cnn2c1N(C(=O)CN1CCN(C(=O)Nc3cccc(Cl)c3)CC1)CC=C2c1cccc(C(F)(F)F)c1
259 to 260 °C | O=C(Nc1nc(-c2ccco2)c(C(=O)c2cc[nH]c2)s1)c1ccncc1
138 to 140 °C | COc1cc(N2CCN(Cc3ccccc3)CC2)c2ncccc2c1Cl
225 to 228 °C | N#Cc1ncn2c1nc(N1CCOCC1)c1ccccc12
157 to 159 °C | CC(SC(=O)c1ccccc1)C(=O)N1c2ccccc2CCC1C(=O)O (stereo unspecified)
241 to 243 °C | O=C1NC(=O)C2(C=Cc3cscc32)N1 (stereo unspecified)
82 to 83 °C | CC1C(=O)c2ccccc2C1NCCc1ccccc1 (stereo unspecified)
174 to 175 °C | CCCCC1C=C(n2c3ccccc3c3ccccc32)c2ccccc2N1C(=O)c1ccc(OC)c(OC)c1 (stereo unspecified)

SMILES | melting point
CCOC(=O)c1ccc2[nH]cc(C3=CCN(C)CC3)c2c1 | 249 °C
N#Cc1cc(C2=NOC(c3cc(Cl)cc(Cl)c3)(C(F)(F)F)C2)ccc1-n1cccn1 (stereo unspecified) | 169 to 176 °C
CN1CC(C(=O)CN2CCCCC2)CC2c3cccc4[nH]cc(c34)CC21 (stereo unspecified) | 168 to 170 °C
